Key:
[1] = Antiproliferative activity against human RPMI8226/MR20 cells assessed as inhibition of cell proliferation; type: functional, cell-based; conditions: RPMI-8226
Tubulin = experiment: […] in human MCF7 cells assessed as induction of mitotic arrest; type: cell-based
MM1.S = experiment: Antiproliferative activity against human MM1S cells assessed as inhibition of cell proliferation; type: functional, cell-based
[2] = Inhibition of paclitaxel binding to microtubule (unknown origin); set-up: species or system Homo sapiens
Hs-578T = experiment: Cytotoxicity against human Hs 578T cells; type: functional, cell-based
U-266 = experiment: Antiproliferative activity against human U266 cells assessed as inhibition of cell proliferation; type: functional, cell-based
[3] = Inhibition of GFP-tagged alpha-tubulin (unknown origin) expressed in human MCF7 cells assessed as disruption of microtubule polymerization; type: cell-based
KB-V1 = experiment: Cytotoxicity against human KBV1 cells; type: functional, cell-based
HeLa = experiment: Cytotoxicity against human HeLa cells; type: functional, cell-based
KB 3-1 = experiment: Cytotoxicity against human KB3-1 cells; type: functional, cell-based
HCT-116 = experiment: Antiproliferative activity against human HCT116 cells assessed as inhibition of cell proliferation; type: functional, cell-based
RPMI-8226 = experiment: Antiproliferative activity against human […] cells assessed as inhibition of cell proliferation; type: functional, cell-based
[4] = Antiproliferative activity against human 8226/LR-5 cells assessed as inhibition of cell proliferation; type: functional, cell-based

C/C(=C\c1csc(C)n1)[C@@H]1C[C@@H]2O[C@]2(C)CCC[C@H](C)[C@H](O)[C@@H](C)C(=O)C(C)(C)[C@@H](O)CC(=O)O1 [PATUPILONE]
IC50 [1]: 1 to 10 nM | IC50 (Tubulin): 3.5 nM | IC50 (MM1.S): 1 to 10 nM | IC50 [2]: 3.3 nM | IC50 (Hs-578T): 3 to 92 nM | IC50 (U-266): 1 to 10 nM | IC50 [3]: 3.5 nM | IC50 (KB-V1): 3 to 92 nM | IC50 (HeLa): 3 to 92 nM | IC50 (KB 3-1): 3 to 92 nM | IC50 (HCT-116): 0.8 nM | IC50 (RPMI-8226): 1 to 10 nM | IC50 [4]: 1 to 10 nM

Source: ChEMBL document CHEMBL4270626, “Synthesis and antitumor activity of epothilone B” (Eur J Med Chem, 2018)
